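Where inhibition never reached the appropriate level, the endpoint shown equals the highest concentration tested. Otherwise, values were interpolated linearly from a five-concentration, 48-hour dose response in 96-well plates. GI50 is the concentration that inhibits growth by half.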 The source made the active and inactive calls. No stated cut-off is given here; in the data, active = GI50 up to about 1.1 µM and inactive = higher.
Columns and labels:
Test in all cases: inhibition of tumour cell growth, NCI panel, 48 h
[1] = test system: EKVX
[2] = test system: CCRF-CEM
[3] = test system: HCC 2998
[4] = test system: DU-145
[5] = test system: MDA-MB-231
[6] = test system: NCI-H460
[7] = test system: SNB-75
[8] = test system: OVCAR-8
[9] = test system: LOX IMVI
[10] = test system: NCI-H522
[11] = test system: NCI-H23
[12] = test system: A549
[13] = test system: HOP-62
[14] = test system: T47D
[15] = test system: SF-539
[16] = test system: BT-549
[17] = test system: ACHN
[18] = test system: NCI-H226
[19] = test system: MDA-N
[20] = test system: NCI/ADR-RES

Measured: GI50

CCOC(=O)/C(C#N)=C(/NNc1ccccc1)c1ccncc1C(=O)O
inactive: [1] > 100 µM | [2] > 38.2 µM | [3] > 22.4 µM | [4] > 42.7 µM | [5] > 100 µM | [6] > 28.1 µM | [7] > 100 µM | [8] > 32.4 µM | [9] 2.81 µM | [10] > 100 µM | [11] > 100 µM | [12] > 52.7 µM | [13] > 100 µM | [14] 8.17 µM | [15] 24.7 µM | [16] > 100 µM | [17] > 21.5 µM | [18] > 100 µM | [19] > 40.8 µM

Oc1ccc2c(c1)OCC(O)(c1ccccc1O)C2 (stereo not given)
inactive: [20] > 100 µM | [1] > 100 µM | [2] > 100 µM | [3] > 100 µM | [4] > 100 µM | [5] > 100 µM | [6] > 100 µM | [7] 61.4 µM | [8] > 100 µM | [9] > 100 µM | [11] > 100 µM | [13] > 100 µM | [14] > 100 µM | [15] > 100 µM | [16] > 100 µM | [17] > 100 µM | [18] > 100 µM | [19] > 100 µM

CN(C)C1=Nc2ccccc2C(=S)N2CSCC12 (stereo not given)
inactive: [20] 73.8 µM | [1] 41.1 µM | [2] 16.4 µM | [3] > 100 µM | [4] > 100 µM | [5] 44.3 µM | [6] 37.8 µM | [7] 57.3 µM | [8] > 100 µM | [9] 43.3 µM | [10] 14.6 µM | [12] > 100 µM | [13] > 100 µM | [14] 89.5 µM | [16] 78.5 µM | [17] > 100 µM | [18] > 100 µM | [19] 39.2 µM

CSc1c(C#N)c2n(c3ccccc3[n+]2C)c2ncccc12
inactive: [20] 28.4 µM | [1] 21.7 µM | [2] 24.2 µM | [3] 30.1 µM | [4] 13.9 µM | [5] 18.5 µM | [6] 15.7 µM | [7] 17.3 µM | [8] 22.3 µM | [9] 14.4 µM | [10] 19.5 µM | [11] 21.5 µM | [12] 12.5 µM | [13] 23.4 µM | [14] 25.8 µM | [16] 28.4 µM | [17] 18.7 µM | [18] 16.2 µM | [19] 21.2 µM

N=C(N)NCCCC(NC(=O)OCCCCCn1ccc(N)nc1=O)C(=O)O (stereo not given)
inactive: [20] > 100 µM | [1] > 100 µM | [2] > 100 µM | [3] > 100 µM | [4] > 100 µM | [5] > 100 µM | [6] > 100 µM | [7] > 100 µM | [8] > 100 µM | [9] > 100 µM | [11] > 100 µM | [12] > 100 µM | [13] > 100 µM | [14] > 100 µM | [15] > 100 µM | [16] > 100 µM | [17] > 100 µM | [18] > 100 µM | [19] > 100 µM

COc1cc(S(=O)(=O)Nc2ccc(-c3csc(N4C(=O)C(C)SC4c4ccccc4O)n3)cc2)ccc1Cl (stereo not given)
inactive: [20] > 100 µM | [1] 28.8 µM | [2] 25.9 µM | [4] 41.3 µM | [7] 28.8 µM | [8] 40.9 µM | [9] 29.9 µM | [10] 18.3 µM | [11] 30.1 µM | [12] > 100 µM | [13] 82.6 µM | [14] 13.3 µM | [15] 34.8 µM | [16] 27 µM | [17] 65.8 µM | [18] 28.6 µM | [19] 28.6 µM

S=C(S)N1CCN(c2ccc(Cl)c(Cl)c2)CC1
inactive: [20] 41.4 µM | [1] 12.9 µM | [2] 13 µM | [3] 20.8 µM | [4] 25.9 µM | [5] 21.3 µM | [7] 20.7 µM | [8] 46.9 µM | [9] 16.6 µM | [10] 21.6 µM | [12] 45.8 µM | [13] 29.5 µM | [14] 16.6 µM | [15] 24.3 µM | [16] 51.3 µM | [17] 37.2 µM | [19] 19.3 µM

CC1C(c2ccccc2)O[B-](F)(c2ccccc2)[NH+]1C (stereo not given)
inactive: [20] > 100 µM | [1] > 100 µM | [2] > 100 µM | [3] > 100 µM | [4] > 100 µM | [5] > 100 µM | [6] > 100 µM | [7] 37.2 µM | [8] > 100 µM | [9] > 100 µM | [11] > 100 µM | [12] > 100 µM | [13] > 100 µM | [14] > 100 µM | [16] > 100 µM | [17] > 100 µM | [18] > 100 µM | [19] > 100 µM
